Source: patent US20200261450A1, “6,7-DIHYDROPYRAZOLO[1,5-a]PYRAZIN-4(5H)-ONE COMPOUNDS AND THEIR USE AS NEGATIVE ALLOSTERIC MODULATORS OF MGLUR2 RECEPTORS” (Janssen Pharmaceutica NV, priority 2014, published 2020)
Like-named read-outs stand apart in the source and are kept apart here.

Legend:
rats = assay: Reversal of the effect of the mGluR2 PAM JNJ-42153605-induced inhibition of scopolamine-induced hyperlocomotion; format: in vivo; details: Rattus norvegicus, criterion total distance >1500 cm, read-out: ED50 SCOP JNJ-42153605
Method: 2) Reversal of the Effect of the mGluR2 PAM JNJ-42153605-Induced Inhibition of Scopolamine-Induced Hyperlocomotion
Motor activity was measured in microprocessor-based motor activity arenas (closed gray PVC cylinders with a height of 39 cm and a diameter of 31 cm). Each arena was placed on an infrared LED (8×8 LEDs) lit box (white PVC squared box; 40×40 cm^2; height 12.5 cm. An infrared-sensitive tube camera and a white light source were mounted to the ceiling above the observation chamber to track the animal. The total distance traveled (cm) was recorded and analyzed using the Noldus Ethovision XT Video Tracking System (Version 7.0.418; Noldus, Wageningen, The Netherlands). The intensity of the light within the activity cages (measured in the centre at the level of the floor) ranged between 4 and 8 LUX.
The rats were pretreated with test compound or vehicle at 60 min before the start of the activity recordings and placed into individual cages. The rats were challenged with JNJ-42153605 (3-(cyclopropylmethyl)-7-(4-phenylpiperidin-1-yl)-8-(trifluoromethyl)[1,2,4]triazolo[4,3-a]pyridine; WO2010/130424; Cid et al. J. Med. Chem. 2012, 55, 8770-8789) (20 mg/kg, i.v.) 30 min before the start of the activity recording combined with scopolamine (0.16 mg/kg, i.v.) just before the start of the activity measurements. Immediately after the injection of scopolamine, the rats were placed into the activity monitors and total distance traveled over the first 30 min was measured.
Animals receiving the combination of JNJ-42153605 and scopolamine (n=433) almost always traveled a distance of less than 1500 cm (<1500 cm) (only 2.5% of the control rats traveled a distance of more than 1500 cm (>1500 cm)). On the other hand, animals challenged with scopolamine alone (n=215) always traveled a total distance of more than 1500 cm (>1500 cm) and almost always (in 95.8% of the rats) a distance of more than 4400 cm (>4400 cm). […] For reversal of the inhibitory effect of JNJ-42153605 on the scopolamine-induced hyperlocomotion, the following all-or-none criteria were adopted: (1) reversal: total distance >1500 cm.

human mGlu2 receptor = biological target: T1, human mGlu2 receptor (Homo sapiens, UniProt Q14416); assay: [35S]GTPγS binding assay, mGluR2 negative allosteric modulation; format: biochemical; details: for Emax: maximal % inhibition relative to the control glutamate response, read-out: GTPγS-hmGluR2 anGT Emax; for IC50: membranes from CHO cells transfected with human mGlu2 receptor, glutamate 60 μM (~EC80), read-out: GTPγS-hmGluR2 anGT pIC50 (converted)
T1 construct: expressed in transfected cells; host or cells: CHO cells (membrane preparation)
T1 sequence (Q14416 19-872): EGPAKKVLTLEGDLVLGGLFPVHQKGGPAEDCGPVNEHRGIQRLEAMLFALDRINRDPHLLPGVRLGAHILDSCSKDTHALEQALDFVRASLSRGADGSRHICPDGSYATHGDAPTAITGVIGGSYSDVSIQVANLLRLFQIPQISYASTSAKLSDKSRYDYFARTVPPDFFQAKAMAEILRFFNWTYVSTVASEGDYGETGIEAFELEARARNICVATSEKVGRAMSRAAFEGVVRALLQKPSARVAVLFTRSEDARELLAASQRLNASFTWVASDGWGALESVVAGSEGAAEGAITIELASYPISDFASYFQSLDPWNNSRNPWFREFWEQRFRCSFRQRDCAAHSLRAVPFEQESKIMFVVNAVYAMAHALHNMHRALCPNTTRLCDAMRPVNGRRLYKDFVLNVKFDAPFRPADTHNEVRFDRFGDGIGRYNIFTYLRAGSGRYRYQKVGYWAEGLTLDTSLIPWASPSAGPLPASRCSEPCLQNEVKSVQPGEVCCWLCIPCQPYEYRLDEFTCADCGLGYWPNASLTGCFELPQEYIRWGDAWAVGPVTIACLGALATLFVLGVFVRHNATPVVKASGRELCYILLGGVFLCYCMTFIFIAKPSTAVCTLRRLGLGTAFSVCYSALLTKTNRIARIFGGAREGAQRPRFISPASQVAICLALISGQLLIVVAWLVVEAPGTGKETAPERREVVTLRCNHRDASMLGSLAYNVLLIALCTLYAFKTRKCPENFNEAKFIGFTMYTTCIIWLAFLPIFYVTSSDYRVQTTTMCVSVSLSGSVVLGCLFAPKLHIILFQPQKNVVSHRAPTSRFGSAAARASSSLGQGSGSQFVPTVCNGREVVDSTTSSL
Source text: Membrane-bound radioactivity was counted in a Topcount.

Wiga Wistar rats = assay: Reversal of LY-404039-induced decrease of palpebral opening in apomorphine-challenged rats; format: in vivo; details: Rattus norvegicus, criterion cumulative palpebral opening score >26, read-out: ED50 APO LY-404039
Method: Male Wiga Wistar rats (Crl:WI; Charles River Germany; 220±40 g) were housed under standard laboratory conditions (21±2° C.; 50-65% relative humidity; light-dark cycle set at 12 h; lights on at 6.00 h) and fasted overnight prior to the start of the experiments (tap water remained available ad libitum). During the test period, they were housed in individual cages. Palpebral opening was scored every 5 min over the first hour after injection of apomorphine (1.0 mg/kg, i.v.) in animals either pretreated or not pretreated with LY-404039 (2.5 mg/kg, s.c.) at 1 h prior to the apomorphine injection. The animals were also pretreated with test compound or solvent at a predefined interval before apomorphine challenge. The score system was: (5) exophthalmos, (4) wide open, (3) open for three-quarters, (2) half open, (1) open for one-quarter, (0) closed. The scores for palpebral opening were cumulated over the 60-min observation period.
In animals receiving apomorphine alone the median palpebral opening is 43 whereas in animals receiving apomorphine and LY-404039, the median palpebral opening is 17.

Wiga rats = assay: Induction of mydriasis; format: in vivo; details: Rattus norvegicus, route PO, pupil diameter >25 units 1 h post-administration
Method: The pupil diameter of Wiga rats was measured with a microscopic micrometer (1 unit= 1/24 mm). Criteria for drug-induced effects: pupil diameter >25 units for mydriasis (in controls: 1.9%) 1 h post-administration of the test compound.

SMILES	ED50 (rats; route PO)	Emax (human mGlu2 receptor)	IC50 (human mGlu2 receptor)	melting point	ED50 (rats; route SC)	ED50 (Wiga Wistar rats; route PO)	ED50 (Wiga Wistar rats; route SC)	ED50 (Wiga rats)
Cc1cc(N2C[C@H](C)n3ncc(-c4cc(-c5cccnc5)no4)c3C2=O)ccc1C(F)(F)F [compound 18]	> 0.63 mg/kg	109%	3.24 nM	143.97 °C				
C[C@H]1CN(c2ccc(C(F)(F)F)cc2)C(=O)c2c(-c3cc(-c4cccnc4)no3)cnn21 [compound 8]		105%	12.9 nM	186.15 °C				
C[C@H]1CN(c2ccc(C(F)(F)F)c(Cl)c2)C(=O)c2c(-c3cc(-c4cccnc4)no3)cnn21 [Co. No. 4, (7S)-5-[3-Chloro-4-(trifluoromethyl)phenyl]-7-methyl-3-[3-(3-pyridyl)isoxazol-5-yl]-6,7-dihydropyrazolo[1,5-a]pyrazin-4-one]	0.51 mg/kg	105%	2.34 nM	115.67 °C				
Cc1ccncc1-c1cc(-c2cnn3c2C(=O)N(c2ccc(C(F)(F)F)c(C)c2)C[C@@H]3C)on1 [compound 20]	> 0.63 mg/kg	109%	2.14 nM	172.39 °C				
Cc1cc(N2C[C@H](C)n3ncc(-c4cc(-c5cncc(F)c5)no4)c3C2=O)ccc1C(F)(F)F [compound 19]		104%	12.9 nM	171.64 °C				
Cc1ccncc1-c1cc(-c2cnn3c2C(=O)N(c2ccc(C(F)(F)F)cc2)C[C@@H]3C)on1 [compound 10]	> 0.63 mg/kg	108%	2.88 nM	211.19 °C				
C[C@H]1CN(c2ccc(C(F)(F)F)c(Cl)c2)C(=O)c2c(-c3cc(-c4ccccn4)no3)cnn21 [compound 13]	> 0.63 mg/kg	107%	7.24 nM	159.08 °C				
C[C@H]1CN(c2ccc(C(F)(F)F)cc2)C(=O)c2c(-c3cc(N)no3)cnn21 [Co. No. 1, (7S)-3-(3-Aminoisoxazol-5-yl)-7-methyl-5-[4-(trifluoromethyl)phenyl]-6,7-dihydropyrazolo[1,5-a]pyrazin-4-one]		100%	490 nM					
Cc1cc(N2C[C@H](C)n3ncc(-c4cc(-c5cnccn5)no4)c3C2=O)ccc1C(F)(F)F [compound 21]	> 0.63 mg/kg	109%	7.08 nM	150.37 °C				
Cc1cc(N2C[C@H](C)n3ncc(-c4cc(-c5ccccn5)no4)c3C2=O)ccc1C(F)(F)F [compound 17]	> 0.63 mg/kg	107%	10.2 nM	171.97 °C				
C[C@H]1CN(c2ccc(C(F)(F)F)c(Cl)c2)C(=O)c2c(-c3cc(-c4ccc(N)nc4)no3)cnn21 [Co. No. 3, (7S)-3-[3-(6-Amino-3-pyridyl)isoxazol-5-yl]-5-[3-chloro-4-(trifluoromethyl)phenyl]-7-methyl-6,7-dihydropyrazolo[1,5-a]pyrazin-4-one]	0.5 mg/kg	105%	1.58 nM					
C[C@H]1CN(c2ccc(C(F)(F)F)cc2)C(=O)c2c(-c3cc(-c4ccccn4)no3)cnn21 [compound 7]		107%	11.7 nM	227.97 °C				
Cc1cc(-c2cnn3c2C(=O)N(c2ccc(C(F)(F)F)c(Cl)c2)C[C@@H]3C)on1 [compound 12]	1.99 mg/kg	103%	2.75 nM	126.2 °C				
Cc1ccncc1-c1cc(-c2cnn3c2C(=O)N(c2ccc(C(F)(F)F)c(Cl)c2)C[C@@H]3C)on1 [compound 15]	> 0.63 mg/kg	110%	1.2 nM	149.26 °C				
C[C@H]1CN(c2ccc(C(F)(F)F)cc2)C(=O)c2c(-c3cc(-c4ccc(N)nc4)no3)cnn21 [Co. No. 2, (7S)-3-[3-(6-Amino-3-pyridyl)isoxazol-5-yl]-7-methyl-5-[4-(trifluoromethyl)phenyl]-6,7-dihydropyrazolo[1,5-a]pyrazin-4-one]	0.28 mg/kg	112%	1.95 nM	263.6 °C	0.3 mg/kg	0.32 mg/kg	0.2 mg/kg	7.94 mg/kg
C[C@H]1CN(c2ccc(C(F)(F)F)c(Cl)c2)C(=O)c2c(-c3cc(-c4cnccn4)no3)cnn21 [compound 16]	> 0.63 mg/kg	105%	3.8 nM	168.47 °C				
C[C@H]1CN(c2ccc(C(F)(F)F)cc2)C(=O)c2c(-c3cc(-c4ccccc4)no3)cnn21 [compound 6]		103%	12.3 nM	220.55 °C				
C[C@H]1CN(c2ccc(C(F)(F)F)cc2)C(=O)c2c(-c3cc(-c4cnccn4)no3)cnn21 [compound 11]		105%	20 nM	202.51 °C				
Cc1cc(-c2cnn3c2C(=O)N(c2ccc(C(F)(F)F)cc2)C[C@@H]3C)on1 [compound 5]	> 2.5 mg/kg	102%	16.6 nM	161 °C				
C[C@H]1CN(c2ccc(C(F)(F)F)cc2)C(=O)c2c(-c3cc(-c4cncc(F)c4)no3)cnn21 [compound 9]		108%	11 nM	180.17 °C				
C[C@H]1CN(c2ccc(C(F)(F)F)c(Cl)c2)C(=O)c2c(-c3cc(-c4cncc(F)c4)no3)cnn21 [compound 14]		105%	5.89 nM	181.56 °C				
